From US5607914A, “Synthetic antimicrobial peptides” (Pioneer Hi-Bred International, Inc., priority 1994, dated 1997)
Where two headings read alike, the source gives them in different places. No end group written: not given here.

Legend:
[1] = tested on: F. moniliforme; assay: Antifungal activity of synthetic peptides (MIC/MCIC); format: cell-based
[2] = tested on: F. graminearum; format: cell-based
[3] = tested on: A. flavus; assay: Antifungal activity of synthetic peptides (MIC/MCIC); format: cell-based
[4] = tested on: C. nebraskense
[5] = tested on: A. tumefaciens
[6] = tested on: E. coli

Cecropin A (KWKLFKKIEKVGQNIRDGIIKAGPAVAVVGQATQIAK; ends and bridges not checked; UniProt P01507 27-63, looked up)
MCIC [1]: > 80
MIC [1]: 80 µg/mL
MIC ([2]; F. graminearum, score of 1 or greater (25% growth inhibition)): 60 µg/mL
MCIC ([2]; F. graminearum, score of 3 or greater (≥80% growth inhibition)): > 80 µg/mL
MCIC [3]: > 80
MIC [3]: 80 µg/mL

KLKKALRWLARHAK [Peptide 20]
MIC [4]: 3.13 μg per ml
MIC [5]: 3.13 μg per ml
MIC [6]: 3.13 μg per ml

KWKKALRALARHLK [Peptide 19]
MIC [4]: 3.13 μg per ml
MIC [5]: 6.25 μg per ml
MIC [6]: 6.25 μg per ml

Mastoparan
MIC ([1]; F. moniliforme, score of 1 or greater (25% growth inhibition)): 2.5 µg/mL
MCIC ([1]; F. moniliforme, score of 3 or greater (≥80% growth inhibition)): 10 µg/mL
MCIC [2]: 10
MIC [2]: 5 µg/mL
MIC ([3]; A. flavus, concentration achieving a score of 1 or greater (25% growth inhibition)): 20 µg/mL
MCIC ([3]; A. flavus, concentration achieving a score of 3 or greater (≥80% growth inhibition)): 40 µg/mL

RRIYRAIRHIPRRIR [Peptide 22]
MIC ([4]; C. nebraskense): 12.5 μg per ml
MIC ([6]; E. coli): 3.13 μg per ml
